Assay results reported in ChEMBL document CHEMBL4350965 (J Med Chem, 2019).

Columns and labels:
[1] = target: T1, PI3K p110 beta/p85 alpha (Homo sapiens, UniProt P42338); test: Inhibition of N-terminal His6-tagged recombinant full length human p110beta/untagged recombinant full length human p85alpha expressed in baculovirus infected Sf21 insect cells at 1 uM using PIP2 as substrate measured after 80 mins by transcreener fluorescence polarization assay relative to control
[2] = Inhibition of PI3Kgamma in […] RAW264.7 cells assessed as reduction in C5a-stimulated AKT phosphorylation at Ser473 residue preincubated for 30 mins followed by C5a-stimulation and measured after 5 mins; format: cell-based
[3] = target: T2, Phosphatidylinositol 4,5-bisphosphate 3-kinase catalytic subunit delta isoform (Homo sapiens, UniProt O00329); test: Inhibition of PI3Kdelta in human Ramos cells assessed as reduction in antihuman IgM-stimulated AKT phosphorylation at Ser473 residue preincubated for 60 mins followed by antihuman IgM stimulation and measured after 15 mins; format: cell-based
T2 sequence (O00329 whole entry): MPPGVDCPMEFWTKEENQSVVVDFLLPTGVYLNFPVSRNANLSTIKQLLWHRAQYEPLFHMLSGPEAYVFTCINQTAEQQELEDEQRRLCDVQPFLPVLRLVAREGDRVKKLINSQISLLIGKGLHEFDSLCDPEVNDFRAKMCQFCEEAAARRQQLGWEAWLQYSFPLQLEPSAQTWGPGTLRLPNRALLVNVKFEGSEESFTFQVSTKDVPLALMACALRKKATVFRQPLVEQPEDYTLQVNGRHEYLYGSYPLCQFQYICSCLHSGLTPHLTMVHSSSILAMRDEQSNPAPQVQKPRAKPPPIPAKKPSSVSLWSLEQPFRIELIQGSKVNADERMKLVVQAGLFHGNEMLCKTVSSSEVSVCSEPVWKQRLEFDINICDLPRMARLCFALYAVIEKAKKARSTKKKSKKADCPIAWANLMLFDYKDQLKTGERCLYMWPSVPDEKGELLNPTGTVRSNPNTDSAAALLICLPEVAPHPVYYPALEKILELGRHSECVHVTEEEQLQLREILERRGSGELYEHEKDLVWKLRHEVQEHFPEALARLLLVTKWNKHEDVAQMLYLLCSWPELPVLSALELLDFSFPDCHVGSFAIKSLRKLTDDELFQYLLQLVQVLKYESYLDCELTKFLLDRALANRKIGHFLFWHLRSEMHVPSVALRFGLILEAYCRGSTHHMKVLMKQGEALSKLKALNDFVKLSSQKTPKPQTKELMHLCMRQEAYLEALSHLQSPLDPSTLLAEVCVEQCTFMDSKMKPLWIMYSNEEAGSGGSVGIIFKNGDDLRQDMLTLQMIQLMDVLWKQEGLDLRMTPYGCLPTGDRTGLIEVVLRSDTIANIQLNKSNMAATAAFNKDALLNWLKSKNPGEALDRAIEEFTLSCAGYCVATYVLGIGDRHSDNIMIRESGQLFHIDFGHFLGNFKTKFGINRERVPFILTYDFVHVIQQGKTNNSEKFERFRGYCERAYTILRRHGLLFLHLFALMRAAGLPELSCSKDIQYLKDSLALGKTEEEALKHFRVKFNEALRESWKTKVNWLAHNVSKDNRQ

[4] = Stability in rat liver microsomes assessed as parent compound remaining at 1 uM measured after 30 mins in presence of NADPH generating system
[5] = Stability in human liver microsomes assessed as parent compound remaining at 1 uM measured after 30 mins in presence of NADPH generating system
[6] = Drug metabolism in human liver microsomes assessed as oxidation of pyrrolidine linker at 1 uM measured after 30 mins in presence of NADPH-generating system; format: ADME, Microsome; details: 0.5 h
[7] = target: Phosphatidylinositol 4,5-bisphosphate 3-kinase catalytic subunit gamma isoform (Homo sapiens, UniProt P48736)
Chain of Phosphatidylinositol 4,5-bisphosphate 3-kinase catalytic subunit gamma isoform (P48736 whole entry, canonical isoform): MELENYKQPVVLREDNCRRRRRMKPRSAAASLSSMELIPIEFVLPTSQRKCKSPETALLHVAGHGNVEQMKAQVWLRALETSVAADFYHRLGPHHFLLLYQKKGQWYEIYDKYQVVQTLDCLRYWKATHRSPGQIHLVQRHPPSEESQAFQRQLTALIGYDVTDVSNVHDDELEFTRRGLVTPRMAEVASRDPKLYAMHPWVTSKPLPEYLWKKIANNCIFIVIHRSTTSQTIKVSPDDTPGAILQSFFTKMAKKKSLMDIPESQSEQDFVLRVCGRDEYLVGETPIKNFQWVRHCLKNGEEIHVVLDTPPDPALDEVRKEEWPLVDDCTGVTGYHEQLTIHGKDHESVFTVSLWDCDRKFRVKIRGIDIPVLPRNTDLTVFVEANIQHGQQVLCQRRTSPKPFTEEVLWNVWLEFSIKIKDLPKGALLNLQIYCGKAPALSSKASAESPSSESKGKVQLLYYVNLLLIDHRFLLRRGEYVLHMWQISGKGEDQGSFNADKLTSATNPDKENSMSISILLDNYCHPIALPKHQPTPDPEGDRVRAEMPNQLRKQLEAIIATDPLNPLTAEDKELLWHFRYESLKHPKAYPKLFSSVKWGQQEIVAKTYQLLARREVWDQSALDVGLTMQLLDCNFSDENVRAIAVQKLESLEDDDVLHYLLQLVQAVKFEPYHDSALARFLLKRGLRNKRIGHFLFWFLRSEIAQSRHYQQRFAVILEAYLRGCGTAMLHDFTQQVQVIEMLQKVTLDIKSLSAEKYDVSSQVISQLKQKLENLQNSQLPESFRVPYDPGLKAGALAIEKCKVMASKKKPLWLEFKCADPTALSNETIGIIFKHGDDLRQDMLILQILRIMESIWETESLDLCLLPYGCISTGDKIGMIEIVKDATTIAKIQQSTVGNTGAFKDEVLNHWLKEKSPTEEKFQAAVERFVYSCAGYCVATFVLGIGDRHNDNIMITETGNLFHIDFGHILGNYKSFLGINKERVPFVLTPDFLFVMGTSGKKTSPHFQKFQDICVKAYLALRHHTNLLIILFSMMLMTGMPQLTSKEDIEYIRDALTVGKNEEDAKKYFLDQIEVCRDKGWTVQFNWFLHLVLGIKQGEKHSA
Description: Inhibition of recombinant human full-length His-tagged PI3K p110gamma expressed in baculovirus expression system using PIP2 as substrate measured after 80 mins by transcreener fluorescence polarization assay

[8] = test system: liver microsomes (Homo sapiens / Mus musculus); test: Drug metabolism in human and mouse liver microsomes assessed as oxidation of pyrrolidine linker at 1 uM measured after 30 mins in presence of NADPH-generating system; details: 0.5 h
[9] = target: T1, PI3K p110 beta/p85 alpha; test: Inhibition of N-terminal His6-tagged recombinant full length human p110beta/untagged recombinant full length human p85alpha expressed in baculovirus infected Sf21 insect cells using PIP2 as substrate measured after 80 mins by transcreener fluorescence polarization assay
[10] = target: PI3-kinase p110-alpha/p85-alpha (Homo sapiens, UniProt P42336); test: Inhibition of recombinant human full-length N-terminal His-tagged PI3K p110alpha/p85alpha expressed in baculovirus expression system at 1 uM using PIP2 as substrate measured after 80 mins by transcreener fluorescence polarization assay relative to control
Chain of PI3-kinase p110-alpha/p85-alpha (P27986 whole entry): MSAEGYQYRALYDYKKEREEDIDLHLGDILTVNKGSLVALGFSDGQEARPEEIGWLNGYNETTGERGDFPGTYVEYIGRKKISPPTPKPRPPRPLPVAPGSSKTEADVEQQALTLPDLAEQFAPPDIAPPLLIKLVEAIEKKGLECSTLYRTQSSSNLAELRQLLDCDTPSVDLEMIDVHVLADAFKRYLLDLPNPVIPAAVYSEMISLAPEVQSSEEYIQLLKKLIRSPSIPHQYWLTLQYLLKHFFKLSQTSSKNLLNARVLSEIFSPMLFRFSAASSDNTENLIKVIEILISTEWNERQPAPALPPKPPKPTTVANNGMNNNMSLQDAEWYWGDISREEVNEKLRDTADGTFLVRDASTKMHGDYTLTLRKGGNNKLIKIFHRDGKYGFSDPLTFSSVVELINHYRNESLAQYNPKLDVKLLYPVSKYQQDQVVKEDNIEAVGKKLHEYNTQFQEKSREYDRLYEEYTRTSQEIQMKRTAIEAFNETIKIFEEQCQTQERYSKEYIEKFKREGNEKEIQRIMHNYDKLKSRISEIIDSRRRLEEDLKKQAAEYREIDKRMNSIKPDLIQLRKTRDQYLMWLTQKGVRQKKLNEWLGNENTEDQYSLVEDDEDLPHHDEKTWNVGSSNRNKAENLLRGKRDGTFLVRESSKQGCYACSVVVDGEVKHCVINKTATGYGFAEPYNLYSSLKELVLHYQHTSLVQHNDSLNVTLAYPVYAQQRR
Chain of PI3-kinase p110-alpha/p85-alpha (P42336 whole entry): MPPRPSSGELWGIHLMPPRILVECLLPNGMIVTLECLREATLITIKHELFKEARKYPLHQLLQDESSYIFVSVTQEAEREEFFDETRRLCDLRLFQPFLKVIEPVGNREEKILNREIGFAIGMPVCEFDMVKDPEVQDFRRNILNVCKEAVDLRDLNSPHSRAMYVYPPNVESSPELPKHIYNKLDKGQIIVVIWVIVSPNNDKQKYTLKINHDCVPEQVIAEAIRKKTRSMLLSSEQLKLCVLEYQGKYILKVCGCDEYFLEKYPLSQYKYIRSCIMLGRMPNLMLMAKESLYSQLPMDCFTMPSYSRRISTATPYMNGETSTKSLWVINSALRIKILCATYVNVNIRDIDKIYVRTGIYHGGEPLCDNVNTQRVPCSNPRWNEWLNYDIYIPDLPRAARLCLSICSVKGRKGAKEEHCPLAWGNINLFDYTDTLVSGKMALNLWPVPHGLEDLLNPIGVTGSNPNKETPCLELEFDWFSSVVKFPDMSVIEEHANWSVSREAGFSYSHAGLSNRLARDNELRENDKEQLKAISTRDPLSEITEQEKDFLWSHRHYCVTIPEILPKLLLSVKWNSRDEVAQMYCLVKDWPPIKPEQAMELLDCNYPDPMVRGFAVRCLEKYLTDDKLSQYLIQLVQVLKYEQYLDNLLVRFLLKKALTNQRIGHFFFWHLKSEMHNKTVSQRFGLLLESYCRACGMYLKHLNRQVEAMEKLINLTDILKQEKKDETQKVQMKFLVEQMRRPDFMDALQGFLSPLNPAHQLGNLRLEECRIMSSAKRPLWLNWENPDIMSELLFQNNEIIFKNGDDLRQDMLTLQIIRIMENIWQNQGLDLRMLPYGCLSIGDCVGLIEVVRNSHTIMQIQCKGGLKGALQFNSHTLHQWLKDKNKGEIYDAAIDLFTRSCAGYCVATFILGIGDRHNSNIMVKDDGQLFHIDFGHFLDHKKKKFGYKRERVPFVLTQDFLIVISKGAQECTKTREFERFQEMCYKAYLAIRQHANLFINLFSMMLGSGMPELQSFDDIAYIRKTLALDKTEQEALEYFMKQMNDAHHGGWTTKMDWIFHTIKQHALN

[11] = target: PI3-kinase p110-delta/p85-alpha (Homo sapiens, UniProt O00329); test: biochemical
Chain of PI3-kinase p110-delta/p85-alpha (P27986 whole entry, one chain of several): as the sequence (P27986 whole entry) above
Description: Inhibition of N-terminal His6-tagged recombinant full length human p110delta/untagged recombinant full length human p85alpha expressed in baculovirus infected Sf21 insect cells using PIP2 as substrate measured after 80 mins by transcreener fluorescence polarization assay

[12] = Inhibition of PI3Kdelta in rat whole blood assessed as reduction in anti-IgD-stimulated CD86 expression on B-cells preincubated for 60 mins followed by anti-IgD stimulation and measured after overnight incubation by flow cytometry; format: tissue-based

T1 sequence (P27986 whole entry): as above
T1 sequence (P42338 whole entry): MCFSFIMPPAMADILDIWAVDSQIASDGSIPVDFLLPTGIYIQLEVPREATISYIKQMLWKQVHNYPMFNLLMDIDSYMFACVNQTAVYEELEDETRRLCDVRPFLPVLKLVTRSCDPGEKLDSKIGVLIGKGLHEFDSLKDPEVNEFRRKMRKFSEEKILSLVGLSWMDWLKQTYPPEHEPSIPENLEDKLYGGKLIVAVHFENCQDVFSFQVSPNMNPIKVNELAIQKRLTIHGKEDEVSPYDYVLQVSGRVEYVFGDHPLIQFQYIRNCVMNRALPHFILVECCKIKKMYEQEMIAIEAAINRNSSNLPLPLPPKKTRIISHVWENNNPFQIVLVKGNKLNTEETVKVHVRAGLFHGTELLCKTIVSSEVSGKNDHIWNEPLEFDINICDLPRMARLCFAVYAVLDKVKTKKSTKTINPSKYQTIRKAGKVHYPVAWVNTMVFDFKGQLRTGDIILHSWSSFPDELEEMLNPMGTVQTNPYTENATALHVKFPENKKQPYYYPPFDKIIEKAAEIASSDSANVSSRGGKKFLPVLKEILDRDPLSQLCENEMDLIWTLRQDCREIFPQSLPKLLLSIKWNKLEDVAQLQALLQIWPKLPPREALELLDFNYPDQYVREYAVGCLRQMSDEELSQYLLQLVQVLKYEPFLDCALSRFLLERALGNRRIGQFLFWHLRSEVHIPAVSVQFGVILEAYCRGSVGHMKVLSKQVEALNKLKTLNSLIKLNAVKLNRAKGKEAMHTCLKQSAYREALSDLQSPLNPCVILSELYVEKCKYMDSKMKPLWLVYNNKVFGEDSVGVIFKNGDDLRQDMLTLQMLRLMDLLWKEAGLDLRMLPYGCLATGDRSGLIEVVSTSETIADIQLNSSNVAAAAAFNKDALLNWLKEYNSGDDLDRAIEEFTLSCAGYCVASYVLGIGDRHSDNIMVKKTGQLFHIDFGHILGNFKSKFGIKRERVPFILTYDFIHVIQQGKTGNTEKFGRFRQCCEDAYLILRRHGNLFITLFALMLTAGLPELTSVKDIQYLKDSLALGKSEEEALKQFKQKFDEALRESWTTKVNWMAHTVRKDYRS

SMILES	IC50 [2] [nM]	IC50 [3] [nM]	remaining at 0.5 h, 1 µM [4] [%]	remaining at 0.5 h, 1 µM [5] [%]	also measured
N#Cc1c[nH]c2ncnc(N3CCC[C@H]3c3nn4cccc4c(=O)n3-c3ccccc3)c12	40	3	19.1	2.8	inhibition at 1 µM [1]: 47.7%; Drug metabolism [6]: Metabolite_Detected; IC50 [7]: 19 nM; Drug metabolism [8]: Metabolite_Detected
CC(=O)c1c[nH]c2ncnc(N3CCC[C@H]3c3nn4ccc(F)c4c(=O)n3-c3ccccc3)c12	42	5	26.1	25.1	–
N#Cc1c[nH]c2ncnc(N3CC[C@H]3c3nn4ccc(Cl)c4c(=O)n3-c3ccccc3)c12	152	21	63.9	89.8	IC50 [9]: 945 nM; inhibition at 1 µM [10]: -0.3%; IC50 [7]: 34 nM; IC50 [11]: 13 nM
N#Cc1cnc(N)nc1N1CCC[C@H]1c1nn2ccc(Cl)c2c(=O)n1-c1ccccc1	22	3	23.5	–	–
C[C@H](Nc1ncnc2nc[nH]c12)c1cc2cccc(Cl)c2c(=O)n1-c1ccccc1 [DUVELISIB]	25	–	–	–	IC50 [12]: 2 nM
CC(=O)c1c[nH]c2ncnc(N3CC[C@H]3c3nn4ccc(Cl)c4c(=O)n3-c3ccccc3)c12	142	21	77.2	83	inhibition at 1 µM [1]: 45.9%; inhibition at 1 µM [10]: 8.4%
CC(=O)c1c[nH]c2ncnc(N3CCC[C@H]3c3nn4ccc(Cl)c4c(=O)n3-c3cccc(F)c3)c12	7	3	–	11.7	–
Nc1ncc(C(=O)C(F)(F)F)c(N2CC[C@H]2c2nn3ccc(Cl)c3c(=O)n2-c2ccccc2)n1	–	–	–	–	IC50 [9]: > 1000 nM
C#Cc1cnc(N)nc1N1CC[C@H]1c1nn2ccc(Cl)c2c(=O)n1-c1ccccc1	–	–	–	–	inhibition at 1 µM [1]: 22.7%
CC(=O)c1c[nH]c2ncnc(N3C[C@@H](F)C[C@H]3c3nn4ccc(Cl)c4c(=O)n3-c3ccccc3)c12	–	–	60.4	20.1	–
O=c1c2c(Cl)ccn2nc([C@@H]2CCCN2c2ncnc3[nH]cnc23)n1-c1ccccc1	–	–	38.8	72.6	–
